Test results: ChEMBL document CHEMBL2163263, “Mechanism inspired development of rationally designed dihydrofolate reductase inhibitors as anticancer agents” (J Med Chem, 2012)
Activity calls are given as the source filed them. The calls are words filed in the database; no cut-off is given here.

Experiments:
COLO 205 = assay: Growth inhibition of human COLO205 cells incubated for 48 hrs by SRB assay; assay type: functional; conditions: COLO 205, 48 h, pooled result: one value given for 7 cell lines, strains, targets or settings
[1] = molecular target: T1, Dihydrofolate reductase (Homo sapiens) (UniProt P00374); assay: Binding affinity to DHFR assessed as change in UV-Vis spectra at 10 uM in HEPES buffer at pH 7.2 by UV-Visible spectroscopy
T1 sequence (whole entry): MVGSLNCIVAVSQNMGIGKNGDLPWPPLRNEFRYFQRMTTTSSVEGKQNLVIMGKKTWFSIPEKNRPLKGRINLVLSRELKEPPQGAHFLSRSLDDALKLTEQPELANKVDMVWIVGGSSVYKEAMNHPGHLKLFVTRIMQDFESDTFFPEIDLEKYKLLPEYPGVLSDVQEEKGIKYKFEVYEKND

[2] = molecular target: T1, Dihydrofolate reductase (Homo sapiens); assay: Binding affinity to DHFR by [1H]NMR spectroscopy
[3] = (§1) Growth inhibition of human NCI60 cells incubated for 48 hrs by SRB assay; assay type: functional; conditions: NCI60, 48 h
[4] = Total tumor growth inhibition of human NCI60 cells incubated for 48 hrs by SRB assay; assay type: functional; conditions: NCI60, 48 h
[5] = Toxicity against human NCI60 cells incubated for 48 hrs by SRB assay; assay type: cell-based; conditions: nci60, 48 h
[6] = Therapeutic index, ratio of LC50 for human NCI60 cells to GI50 for human NCI60 cells; assay type: cell-based; conditions: read-out: TI
[7] = molecular target: T1, Dihydrofolate reductase (Homo sapiens)
Description: Inhibition of DHFR reduction in conversion of DHF to THF in presence of NADPH by DHFR assay

NCI60 = assay: as §1; assay type: functional
[8] = molecular target: Thymidylate synthase (Homo sapiens) (UniProt P04818); assay: Binding affinity to thymidylate synthase assessed as change in UV-Vis spectra at 10 uM in HEPES buffer at pH 7.2 by UV-Visible spectroscopy
Chain of Thymidylate synthase (Homo sapiens) (P04818 2-313 limits assumed): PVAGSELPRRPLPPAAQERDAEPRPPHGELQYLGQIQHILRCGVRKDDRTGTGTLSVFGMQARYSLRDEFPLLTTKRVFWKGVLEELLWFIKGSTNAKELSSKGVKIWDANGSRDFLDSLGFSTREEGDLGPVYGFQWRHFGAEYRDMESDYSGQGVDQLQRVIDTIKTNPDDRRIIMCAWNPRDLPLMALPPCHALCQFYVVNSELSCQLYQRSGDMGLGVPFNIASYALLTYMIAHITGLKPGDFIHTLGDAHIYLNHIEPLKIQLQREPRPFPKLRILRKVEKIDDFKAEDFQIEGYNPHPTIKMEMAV

[9] = molecular target: T1, Dihydrofolate reductase (Homo sapiens); assay: Binding affinity to DHFR at 32 mM by [1H]NMR spectroscopy
[10] = molecular target: Thymidine phosphorylase (Homo sapiens) (UniProt P19971); assay: Binding affinity to […] assessed as change in UV-Vis spectra at 10 uM in HEPES buffer at pH 7.2 by UV-Visible spectroscopy
Chain of Thymidine phosphorylase (Homo sapiens) (P19971 whole entry, looked up): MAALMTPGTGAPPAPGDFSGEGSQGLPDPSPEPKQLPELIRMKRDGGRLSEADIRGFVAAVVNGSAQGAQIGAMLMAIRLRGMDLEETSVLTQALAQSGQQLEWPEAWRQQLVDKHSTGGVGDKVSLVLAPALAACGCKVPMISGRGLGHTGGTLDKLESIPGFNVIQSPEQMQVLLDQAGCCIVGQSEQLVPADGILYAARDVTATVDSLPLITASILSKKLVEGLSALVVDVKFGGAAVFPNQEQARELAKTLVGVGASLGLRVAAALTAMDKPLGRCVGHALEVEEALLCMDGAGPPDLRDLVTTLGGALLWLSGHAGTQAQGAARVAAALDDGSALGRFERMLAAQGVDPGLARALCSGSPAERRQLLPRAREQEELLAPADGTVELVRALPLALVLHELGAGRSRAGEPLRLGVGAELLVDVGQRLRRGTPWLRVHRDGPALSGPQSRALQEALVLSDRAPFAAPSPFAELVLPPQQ

[11] = molecular target: T1, Dihydrofolate reductase (Homo sapiens); assay: Binding affinity to DHFR at 48 mM by [1H]NMR spectroscopy
NCI-H522 = assay: Growth inhibition of human NCI-H522 cells incubated for 48 hrs by SRB assay; assay type: functional; conditions: NCI-H522, 48 h
UACC-257 = assay: Growth inhibition of human UACC257 cells incubated for 48 hrs by SRB assay; assay type: functional; conditions: UACC-257, 48 h
OVCAR-3 = assay: Growth inhibition of human OVCAR3 cells incubated for 48 hrs by SRB assay; assay type: functional; conditions: OVCAR-3, 48 h
A498 = assay: Growth inhibition of human A498 cells incubated for 48 hrs by SRB assay; assay type: functional; conditions: A498, 48 h
MCF7 = assay: Growth inhibition of human MCF7 cells incubated for 48 hrs by SRB assay; assay type: functional; conditions: MCF7, 48 h
Hs-578T = assay: Growth inhibition of human Hs578T cells incubated for 48 hrs by SRB assay; assay type: functional
MDA-MB-468 = assay: Growth inhibition of human MDA-MB-468 cells incubated for 48 hrs by SRB assay; assay type: functional; conditions: MDA-MB-468, 48 h
[12] = molecular target: T1, Dihydrofolate reductase (Homo sapiens); assay: Inhibition of DHFR reduction in conversion of DHF to THF at 100 nM in presence of NADPH by DHFR assay
[13] = molecular target: T1, Dihydrofolate reductase (Homo sapiens); assay: Inhibition of DHFR reduction in conversion of DHF to THF at 1 uM in presence of NADPH by DHFR assay
[14] = molecular target: T1, Dihydrofolate reductase (Homo sapiens); assay: Inhibition of DHFR reduction in conversion of DHF to THF at 10 uM in presence of NADPH by DHFR assay
[15] = molecular target: T1, Dihydrofolate reductase (Homo sapiens); assay: Inhibition of DHFR reduction in conversion of DHF to THF at 100 uM in presence of NADPH by DHFR assay
[16] = molecular target: T1, Dihydrofolate reductase (Homo sapiens); assay: Inhibition of DHFR reduction in conversion of DHF to THF at 10 nM in presence of NADPH by DHFR assay
SR = assay: Growth inhibition of human SR cells incubated for 48 hrs by SRB assay; assay type: functional
cells = conditions: Homo sapiens, NCI60, 48 h

| SMILES | Activity [1] | Activity [2] | GI50 [3] [nM] | TGI [4] [nM] | LC50 [5] [nM] | selectivity ratio [6] | IC80 [7] [nM] | other results |
| --- | --- | --- | --- | --- | --- | --- | --- | --- |
| CC1=NN(c2cccc(Cl)c2)C(=O)/C1=C\c1cn(CC(O)CN2CCCCC2)c2ccccc12 (centres undefined) | inactive | Active | 5500 | 16900 | 47800 | 18.4 | 1060 | GI50 (COLO 205): 1700 nM |
| COc1cc(C=C2C(=O)N(C)C(=O)N(C)C2=O)cc(OC)c1O | inactive | inactive | – | – | – | – | – | growth inhibition (GI) (NCI60): inactive |
| COc1cc(/C=C2\C(=O)N(c3c(Cl)cccc3Cl)c3ccccc32)cc(OC)c1O | – | – | 1500 | 19400 | 61600 | 41.1 | 10000 | Activity [8]: inactive; Activity [9]: Active; K [1]: 1.6 ×10⁷ /M; Activity [10]: inactive |
| O=C1/C(=C\c2ccccn2)c2ccccc2N1c1c(Cl)cccc1Cl | inactive | Active | 2000 | 9100 | 27500 | 13.7 | – | – |
| O=C1/C(=C\c2cn(CC(O)CN3CCCCC3)c3ccccc23)c2ccccc2N1c1c(Cl)cccc1Cl (centres undefined) | inactive | Active | 1800 | 3200 | 9100 | 5.1 | 890 | – |
| COc1cc(/C=C2\C(=O)Nc3ccccc32)cc(OC)c1O | – | – | 3500 | 21400 | 72400 | – | – | Activity [11]: Active; Activity [8]: inactive; GI50 (NCI-H522): 600 nM; GI50 (UACC-257): 600 nM; GI50 (OVCAR-3): 600 nM; GI50 (A498): 600 nM; GI50 (MCF7): 600 nM; GI50 (Hs-578T): 600 nM; GI50 (MDA-MB-468): 600 nM; inhibition [12]: > 90%; inhibition [13]: > 90%; inhibition [14]: > 90%; inhibition [15]: > 90%; inhibition [16]: > 90%; GI50 (SR): 600 nM; IC90 [7]: 1360 nM; GI50 (cells): 600 nM; Activity [10]: inactive |
| COc1cc(/C=C2\C(=O)N(c3cccc(Cl)c3)N=C2C)cc(OC)c1O | inactive | inactive | – | – | – | – | – | growth inhibition (GI) (NCI60): inactive |
| CC1=NN(c2cccc(Cl)c2)C(=O)/C1=C\c1c[nH]c2ccc(Br)cc12 | inactive | Active | 3900 | 17700 | 50100 | 12.8 | – | – |
| COc1ccc2c(c1)c(CC(=O)O)c(C)n2C(=O)c1ccc(Cl)cc1 [INDOMETHACIN] | – | – | 64300 | – | – | – | – | – |
